The test system of one data set is B16-F10 melanoma. In words: Adoptive T cell transfer, s.c. B16-F10 melanoma in C57BL/6 mice, tumor growth. The note with it: TRP-1 Th1/17 differentiated with DON 3 μM vs DMSO, 0.5×10^6 cells (FIG. 3P). In kind it is in vivo, mouse. Here is the method: Adoptive T cell protocol: B16-F10 or B16-F10-A2^+ mouse melanoma tumor cells (2.5×10^6) were injected subcutaneously (s.c.) into left flank of 8-10 weeks old C57BL/6 or HLA-A2^+ (or HLA-A2^+-RAG^−/−) mice respectively. After 9 days of tumor establishment, recipient mice were injected (i.p) with cyclophosphamide (4 mg/mice) before adoptively transferring (i.v) either h3T (CD4^+Vβ12^+) or TRP-1 (CD4^+Vβ14^+) Th1, Th17, Th1/17 cells on day 10. Similarly, Pmel (CD8^+Vβ13^+) and TCR-I (CD8^+Sv40 antigen specific) Tc1, Tc17 and Tc1/17 cells were adoptively transferred (i.v) into either 9 days established B16-F10 tumor bearing mice or TRAMP (spontaneously develop prostate tumor) respectively. For in vivo neutralization of IFNγ and IL17, neutralizing antibody to IFNγ and IL17 or matched isotype antibody was injected (100 μg/mouse; i.p.) in tumor bearing mice following adoptive transfer of T cells. In some experiments, tumor bearing mice received anti-CD38 antibody (50 μg/mouse; i.p.) after adoptive TRP-1 Th0 cells transfer. Recipient mice were given IL2 (50,000 U/mouse; i.p) for 3 consecutive days after ACT.

Data set [1] has as its system Th1/17 cells. Put plainly: Intracellular cytokine (IFNγ, IL17) flow cytometry after PMA and ionomycin. In kind it is cell-based, mouse. The text has this:
T cell differentiation: Naïve CD4^+ T cells were purified from the total splenocytes of 6-9 weeks old WT (C57BL/6) and KO (Foxo1^fl/flLck^cre, Sirt1^fl/flCD4^cre, CD38KO) mice using CD4^+ T cell isolation kit (Miltenyi Biotec) according to manufacturer's protocol. Total splenocytes from 6-9 weeks old TCR transgenic mouse TRP-1 (bears class-II restricted CD4^+ T cells) or Pmel (bears class-I restricted CD8^+ T cells) or TCR-I (bears class-I restricted CD8^+ T cells) were also used. Within experiments mice were age and sex matched. Purified naïve CD4^+ T cells or total splenocytes were differentiated to Th1 or Tc1 (10 ng/ml IL12, 50 U/ml IL2 and 10 μg/ml anti-IL4), Th17 or Tc17 (3 ng/ml TGFβ, 25 ng/ml IL6, 10 μg/ml anti-IL4 and 10 μg/ml anti-IFNγ), Th1/17 or Tc1/17 (20 ng/ml IL1β, 25 ng/ml IL6, 10 ng/ml IL12, 20 ng/ml IL23, 400 pg/ml TGFβ, 10 μg/ml anti-IL4, 5 μg/ml anti-IFNγ), iTreg (5 ng/ml TGFβ, 100 IU/ml IL2, 10 μg/ml anti-IL4 and 10 μg/ml anti-IFNγ or Th0 (50 IU/ml IL2) in presence of plate bound anti-CD3 (5 μg/ml) and anti-CD28 (5 μg/ml). For TRP-1, gp100 or Sv40 specific generation of different Th or Tc subsets, total splenocytes from either TRP-1, Pmel or TCR-I TCR transgenic mice were stimulated with 1 μg/ml respective peptides in presence of above-mentioned polarizing conditions. T cells were differentiated for three days in IMDM media supplemented with 10% FCS, 4 mM L-glutamine, 100 U/ml penicillin, 100 μg/ml streptomycin, 55 μM beta-mercaptoethanol under 7% CO2, atmospheric oxygen at 37° C. in a humidified incubator. For evaluation of intracellular cytokines by flow cytometry, T cells were re-stimulated with PMA (500 ng/ml) and Ionomycin (500 ng/ml) for 4 hr in presence of Glogi inhibitors. […]
Flow cytometry: Staining for cell surface markers was performed by incubating cells with antibody at 1:200 dilutions in FACS buffer (0.1% BSA in PBS) for 30 min at 4° C. […] Samples were acquired on LSRFortessa and analysed with FlowJo software (Tree Star, OR).

The test system of data set [2] is Th1/17 cells. Put plainly: Viable cells by FACS live/dead dye staining. In kind it is cell-based, mouse. The note with it: cultured in presence of DON 3 μM; compared to Th1 or Th17 cell (FIG. 11H). As to the method:
FIGS. 11A-11L: Metabolic commitment of Th1, Th17 and Th1/17 cells (see FIGS. 3-4). (A-C) In vitro differentiated murine Th1, Th17 and Th1/17 cells were used for determining: (A) intracellular expression of various glycolytic enzymes, (B) cell surface expression of different amino acid transporters, and (C) intracellular expression of glutaminolytic enzymes by flow cytometry. Data are representative of three independent experiments with similar results. (D) Western blot analysis determined the protein level of various glutamine transporters and glutaminolytic enzymes in in vitro differentiated Th1, Th17 and Th1/17 cells. β-actin was used as a loading control. Data are representative of two independent experiments with similar results. (E-F) Purified CD4^+ T cells were differentiated to Th1, Th17 and Th1/17 cells either in presence or absence of 2DG (1 mM) or DON (3 μM) and characterized for: (E) intracellular cytokine secretion after restimulating them with PMA and ionomycin for 4 hr, (F) determining the frequency of cells that were IFNγ^+, IL17^+ or IFNγ^+IL17^+ in each treatment groups and presented using scatter plot. Statistical comparison between treated and untreated groups are indicated. […] (I) Purified CD4^+ T cells were differentiated into Th1, Th17 and Th1/17 cells and intracellular metabolites were measured using mass spectrometry. […]

Data set [3] deals with Th1/17 cells. In words: Glutamine uptake assay (radiolabelled glutamine). In kind it is cell-based, mouse. Conditions: DON pre-treatment, different conc. (FIG. 3O). As to the method:
Glutamine uptake assay: Ex vivo programmed Th cell subsets (1×10^6 cells) were starved in glutamine free RPMI-1640 media (Thermo Fisher Scientific, Cat #21870-076) for 15 min before incubated with L-2,3,4-[^3H] glutamine (0.5 mCi, PerkinElmer) for 10 min at room temperature. Cells were lysed in 500 μl of lysis buffer (Sigma-Aldrich, St. Louis, MO) and radioactivity was measured by liquid scintillation.

A further data set relates to NAD+. Put plainly: Intracellular NAD+ level. Conditions: Th1/17 differentiated with 2DG 1 mM, DON 3 μM or FK866 10 nM (FIGS. 11K, 11L). In kind it is cell-based, mouse. As to the method: NAD^+, Sirt1 activity and Foxo1 activity assay: Intracellular NAD^+ level in T cells were measured spectrophotometrically following the manufacturer's protocol (Cayman chemical, Ann Arbor, MI). Using equal amounts of nuclear protein extracted by NE-PER Nuclear and Cytoplasmic Extraction Reagents (Thermo Fisher Scientific, Waltham, MA), Sirt1 activity (Universal Sirt1 Activity Assay Kit, Abcam, Cambridge, MA) and Foxo1 activity (FKHR transcription Factor Assay Kit, Active Motif, Carlsbad, CA) were determined as per manufacturer's protocol.

Data set [4] relates to B16-F10-HLA-A2+ murine melanoma. In words: Adoptive T cell transfer, s.c. B16-F10-HLA-A2+ melanoma, tumor growth. In kind it is in vivo, mouse. The note with it: Th1/17 differentiated ex vivo with FK866 or Ex527 vs untreated/vehicle (FIGS. 4E, 5F).
Another data set deals with Th1 cells. In words: Intracellular cytokine (IFNγ, IL17) flow cytometry after PMA and ionomycin. It is filed as cell-based, mouse. Conditions: Th1 subsets (FIGS. 12A and 12B). As to the method: FIGS. 12A-12D: Loss of Sirt1 expression and NAD+ levels on Th1/17 cell phenotype and function (see FIG. 5). (A) Purified CD4^+ T cells from C57BL/6 were used to differentiate to Th1/17 cells either alone or in the presence of Ex527, a pharmacological inhibitor of Sirt1. Cells were then restimulated with PMA and ionomycin for 4 hr in presence of golgi block to stain for intracellular accumulation of cytokines IFNγ and IL17. (B) Th1 cells were cultured either in presence or absence of NAD+ inhibitor FK866 (10 nM) and intracellular staining was performed for IFNγ and IL17. Data was acquired using FACS and analysis was carried out using FlowJo software. (C-D) Purified splenic CD4^+ T cells from either C57BL/6 WT or Sirt1fl/flCD4Cre (Sirt1KO) mouse were used to ex vivo program for Th1/17 cells. RNA was prepared and quantitative PCR analysis was performed for the expression of various glycolysis (C) and glutaminolysis (D) associated genes in either WT or Sirt1KO Th1/17 cells. Data in section A-D are representative of three independent experiments.
T cell differentiation: Naïve CD4^+ T cells were purified from the total splenocytes of 6-9 weeks old WT (C57BL/6) and KO (Foxo1^fl/flLck^cre, Sirt1^fl/flCD4^cre, CD38KO) mice using CD4^+ T cell isolation kit (Miltenyi Biotec) according to manufacturer's protocol. […]
For orientation: Flow cytometry measures light scatter and fluorescence of single cells or particles in a stream.

Data set [5] relates to Th1/17 cells. In words: qPCR gene expression in Th1/17 cells. In kind it is cell-based, mouse. The note with it: Th1/17 differentiated with FK866 10 nM or Ex527 (FIGS. 4D, 5D). As to the method: Real-time quantitative-PCR: Total RNA was extracted from pellets of the indicated T cell subsets (2×10^6 cells) using Trizol reagent (Life technologies, Grand Island, NY). cDNA was generated from 1 μg total RNA using iScript cDNA Synthesis Kit (BioRad, Hercules, CA). SYBR Green incorporation quantitative real-time PCR was performed using a SYBR Green mix (Biorad, Hercules, CA) in the CFX96 Detection System (BioRad, Hercules, CA). Expression of different genes was quantified relative to Actb.

Data set [6] concerns Th1/17 cells. Put plainly: Global acetylation of nuclear protein, western blot. In kind it is cell-based, mouse. Conditions: Nampt inhibitor FK866 treatment (FIG. 6A, FIG. 13A). Here is the method:
Immunoblotting and Immunoprecipitation of Foxo1: For evaluation of global protein acetylation, cells were lysed using NE-PER Nuclear and Cytoplasmic Extraction Reagents (Thermo Fisher Scientific, Waltham, MA) and nuclear fraction was isolated according to the manufacturer's protocol. Equal amounts of nuclear protein (20 μg) were separated by 4%-12% SDS-PAGE and then transferred to nitrocellulose membranes. The membranes were probed with anti-Acetyl-Lysine antibody (Cell Signaling Technologies, Danvers, MA) followed by incubation with secondary antibody (HRP-conjugated goat anti-rabbit IgG at 1:3000 dilutions) for overnight at 4° C. Pre-stained molecular weight and magic markers were run in parallel to identify the molecular weight of proteins. For chemiluminescent detection, the membranes were treated with enhanced chemiluminescent reagent, and the signal was monitored using a Biorad Versadoc imaging system (Biorad, Hercules, CA). Same membrane was stripped with stripping buffer (Bioland Scientific, Paramount, CA) according to manufacturer's protocol and re-probed with antibody specific to histone H3 (Cell Signaling Technologies, Danvers, MA) as reference control.
(In general: Immunoblotting shows a protein as a band on a membrane.)

For a further data set, the system named is Foxo1. In words: Confocal imaging of Foxo1 localization in Th17 and Th1/17 cells. It is filed as cell-based, mouse. Conditions: Th17 and Th1/17 cells programmed with SC-79 0.5 μg/ml (FIG. 13H).

Regarding `[N-]=[N+]=CC(=O)CC[C@H](N)C(=O)O` [DON, 6-Diazo-5-oxo-L-norleucine], in the data set with B16-F10 melanoma, the “anti-tumor response of DON pre-treated Th1/17 cells upon ACT” value is reported as “significant attenuation of the anti-tumor response upon ACT”. The “IFNγ+IL-17+ secreting fraction” value in the data set with Th1/17 cells [1] (DON 3 μM in differentiation media from day 0 (FIGS. 11E, 11F)) is reported as “reduction in IFNγ^+IL-17^+ secreting fraction”. Further, the “viability of Th1/17 cells” value in the data set on Th1/17 cells [2] is “reduced by two-folds”. Also, the “uptake of radio labelled glutamine” value in the data set on Th1/17 cells [3] is given as “reduced the uptake of radio labelled glutamine in a dose dependent manner”. In addition, the “NAD+ levels in Th1/17 cells” value with NAD+ is listed as “significantly reduced NAD^+ levels”.

Regarding `O=C(/C=C/c1cccnc1)NCCCCC1CCN(C(=O)c2ccccc2)CC1` [FK866], the “tumor control by inhibitor-treated Th1/17 cells upon adoptive transfer” value in [4] was “failed to exhibit potent tumor control upon adoptive transfer”. In addition, the “frequency of IL17+IFNγ+ population” value in the data set with Th1/17 cells [1] (FK866 10 nM in differentiation media from day 0 (FIG. 4C)) is “two-fold decrease in the frequency of IL17^+IFNγ^+ population”. For the same compound, the IFNγ secreting fraction result in the data set on Th1 cells is listed as “No significant difference”. Also, the “NAD+ levels in Th1/17 cells” value with NAD+ is “depletion of NAD^+”. The “expression of stemness-associated genes” value in the data set on Th1/17 cells [5] was “reduced expression of stemness-associated molecules such as Tcf7, Bcl6, and β-catenin”. The “reduced global acetylation of Th1/17 cells” value in the data set on Th1/17 cells [6] is recorded as “reversed to a certain extent”.

With `CCOC(=O)C1=C(N)Oc2ccc(Cl)cc2C1C(C#N)C(=O)OCC` (stereo not drawn) [SC-79], the “nuclear Foxo1 levels” value in the data set with Foxo1 is “reduced nuclear Foxo1 levels”.
